Data reported in patent publication EP3687536B1, “METHODS OF TREATING HEMOCHROMATOSIS AND RESPIRATORY DISORDERS” (MYMD PHARMACEUTICALS, INC., priority 2017, dated 2019).
“Also recorded” adds a separate entry of the source.

How the values were obtained:
[1] = molecular target: T1, MAO-A (Homo sapiens, UniProt P21397); experiment: MAO-Glo luminescent assay, MAO-A inhibition; assay type: biochemical; conditions: for inhibiting the enzymatic activity of MAO-A (result in words): compared among isomyosmine, myosmine, anatabine, anabasine, nornicotine, clorgyline positive control, FIG. 3
T1 construct: purchased
T1 sequence (P21397 1-527): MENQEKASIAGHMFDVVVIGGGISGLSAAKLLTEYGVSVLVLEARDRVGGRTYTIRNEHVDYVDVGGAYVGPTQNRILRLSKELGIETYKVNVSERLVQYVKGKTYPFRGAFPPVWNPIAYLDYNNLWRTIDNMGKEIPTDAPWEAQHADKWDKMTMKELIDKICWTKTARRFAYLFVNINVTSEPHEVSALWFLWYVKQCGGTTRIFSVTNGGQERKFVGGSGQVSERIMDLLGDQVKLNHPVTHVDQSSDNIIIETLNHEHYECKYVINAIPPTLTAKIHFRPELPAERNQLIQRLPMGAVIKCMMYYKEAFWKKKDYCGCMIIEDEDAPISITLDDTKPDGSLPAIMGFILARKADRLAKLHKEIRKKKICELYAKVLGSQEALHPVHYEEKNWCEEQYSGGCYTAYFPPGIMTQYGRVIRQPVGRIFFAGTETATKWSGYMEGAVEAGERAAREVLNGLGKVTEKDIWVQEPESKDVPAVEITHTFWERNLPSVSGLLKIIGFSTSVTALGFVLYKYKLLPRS
Description: (§1) This example describes experiments for determining monoamine oxidase (MAO) inhibition for isomyosmine and other alkaloids. MAOs are enzymes located on the outer membrane of mitochondria and are involved in the catabolism of monoamine neurotransmitters. There are two well-characterized isoenzymes: MAO-A, which predominantly catabolizes serotonin and norepinephrine, and MAO-B, which preferentially catabolizes benzylamine and phenylethylamine. Dopamine and tyramine are metabolized by both isoforms.
(§2) To detect the activity of MAO, a luminescent method (MAO-Glo Assay kit, from Promega, Cat # V1401) was used. In this method, a MAO substrate (a derivative of beetle luciferin provided in the kit) is mixed with the compound to be tested (in this case, myosmine and control compounds). Then, the MAO enzymes (either A or B, purchased separately) are added to the mixture and incubated with the reaction for 1 hour at room temperature. The MAO enzymes, if not inhibited by the test compound, will convert the substrate into methyl ester luciferin. Finally, a luciferin detection reagent (provided by the kit) is added (20 minutes at room temperature) to stop the MAO reaction and convert methyl ester luciferin into D-luciferin. D-luciferin reacts with luciferase to produce a luminescent signal, which is directly proportional to the D-luciferin concentration and thus the MAO activity: the greater the amount of light produced the higher the activity of MAO. The luminescent signal is measured and recorded using a luminometer.
The following materials were obtained from Toronto Research Chemicals, North York, ON: isomyosmine, catalog # 1821350; myosmine, catalog # M835000; anabasine, catalog # A637175; and nornicotine, catalog # N756995. Anatabine was obtained from Emerson Resources, Norristown, PA.

[2] = molecular target: T2, MAO-B (Homo sapiens, UniProt P27338); experiment: MAO-Glo luminescent assay, MAO-B inhibition; assay type: biochemical; conditions: compared among isomyosmine, myosmine, anatabine, anabasine, nornicotine; FIG. 4
T2 construct: purchased
T2 sequence (P27338 1-520): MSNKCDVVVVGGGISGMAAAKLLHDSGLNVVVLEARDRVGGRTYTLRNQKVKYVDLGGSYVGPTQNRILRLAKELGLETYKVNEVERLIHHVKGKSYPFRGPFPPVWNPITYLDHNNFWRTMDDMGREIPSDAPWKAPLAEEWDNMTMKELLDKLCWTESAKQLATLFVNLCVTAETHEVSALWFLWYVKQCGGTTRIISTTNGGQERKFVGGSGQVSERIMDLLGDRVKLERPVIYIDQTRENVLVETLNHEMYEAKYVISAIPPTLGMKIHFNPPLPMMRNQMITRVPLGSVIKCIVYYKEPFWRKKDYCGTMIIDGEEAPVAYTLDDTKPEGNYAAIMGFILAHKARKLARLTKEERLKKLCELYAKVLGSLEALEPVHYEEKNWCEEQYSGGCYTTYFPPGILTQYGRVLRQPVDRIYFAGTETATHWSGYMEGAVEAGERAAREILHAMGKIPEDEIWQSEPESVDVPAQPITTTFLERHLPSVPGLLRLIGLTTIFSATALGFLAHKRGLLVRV
Description: as §1
as §2, with “D-luciferin reacts with luciferase to produce a luminescent signal, which is directly proportional to the D-luciferin concentration and thus the MAO activity: the greater the amount of light produced the higher the activity of MAO.” left out, “luminometer. […]” for “luminometer.”

[3] = Blood oxygen saturation (SpO2) by pulse oximetry in individuals; assay type: in vivo, human; conditions: seven individuals, one hour after single dose 50-100 mg
Description: This example illustrates the effect of isomyosmine on normal blood oxygen saturation levels (SpO2). SpO2 refers to peripheral capillary oxygen saturation, an estimate of the amount of oxygen in the blood. More specifically, it is the percentage of oxygenated hemoglobin (hemoglobin containing oxygen) compared to the total amount of hemoglobin in the blood (oxygenated and non-oxygenated hemoglobin). SpO2 can be measured by pulse oximetry, an indirect, non-invasive method. It works by emitting and then absorbing a light wave passing through blood vessels (or capillaries) in the fingertip. A variation of the light wave passing through the finger will give the value of the SpO2 measurement because the degree of oxygen saturation causes variations in the blood's color.

[4] = Topical administration for wound healing; assay type: in vivo; conditions: e.g. surgical incisions
Description: A method, not falling within the scope of the claimed subject-matter, of treating a wound is also described herein which comprises administering to an individual in need thereof a pharmaceutical composition containing a therapeutically effective amount of isomyosmine or a pharmaceutically acceptable salt thereof.

Structure (SMILES) | inhibiting the enzymatic activity of MAO-A (result in words) [1] | inhibiting the enzymatic activity of MAO-A (result in words) ([1]; listed as Isomyosmine) | inhibition at 2000 µM ([1]; read-out: inhibition of MAO-A) [%] | inhibiting the activity of MAO-B (result in words) [2] | blood oxygenation (result in words) [3] | wound healing (result in words) [4]
C#CCN(C)CCCOc1ccc(Cl)cc1Cl [clorgyline, reference compound] | greatly shifted leftward |  |  |  |  | 
C1=NC(c2cccnc2)CC1 (stereo not shown) [isomyosmine, 3-(3,4-dihydro-2H-pyrrol-2-yl)-pyridine] | most potent of the five | potent inhibitor | ~50 | most potent among the five alkaloids tested; also recorded: potent inhibitor | significant increase in blood oxygenation | dramatically improve healing
